From US20070232698A1, “Slimming Skin External Preparation and Cosmetic Containing the Same” (priority 2004, published 2007)

How the values were obtained:
Mouse 3T3 adipocytes = assay: Measurement of fat metabolic activity for mouse 3T3 adipocytes (free glycerol in culture medium); type: cell-based; settings: 250 μM test substance, medium recovered after 24 hours; control (none) = 100
Method: The five carnitine and carnitine derivatives 1) to 5) used in Example 1 were tested. The fat metabolic activity was measured and compared by quantitative determination of glycerol in the culture medium based on the fact that metabolism of the fat accumulated in adipocytes releases glycerol and free fatty acid to the culture medium.
Mouse 3T3 cells as the preadipocytes were disseminated on a 10 cm-diameter dish such that 1×10^4 cells were on the dish. […] Thereafter, the culture medium was replaced with a 10% FCS-containing DMEM culture medium that contained […] of dexamethasone, 0.5 mM of isobutylmethylxanthine and 10 μg/ml of insulin, and incubation was continued for another 2 days. Subsequently, the culture medium was replaced again with a 10% FCS-containing ordinary DMEM culture medium, and incubation was performed for another week, resulting in differentiation of the preadipocytes into adipocytes. Next, the culture medium was replaced with an ordinary culture medium that contained 250 μM of the carnitine or carnitine derivative of the five substances 1) to 5) used in Example 1, and the culture medium was recovered after 24 hours. The cells were washed with Dulbecco's PBS (−) and were recovered. Cells incubated in the absence of the test substances were used as the control. The glycerol content in the culture medium was quantitatively determined using Glycerol Test E Wako (Wako Pure Chemical Industries, Ltd.).
The fat metabolic activity for mouse 3T3 adipocytes was determined based on the free glycerol content in the same manner as in Example 2, except that the two carnitine and carnitine derivative 1) and 6) used in Example 4 were tested.
The fat metabolic activity for mouse 3T3 adipocytes was determined based on the free glycerol content in the same manner as in Example 2, except that the three carnitine and carnitine derivatives 1), 7) and 8) used in Example 7 were tested.

[1] = system: skin together with subcutaneous fat tissues; assay: Subcutaneous fat breakdown test (rat abdominal skin with subcutaneous fat in Franz diffusion cell); settings: lower cell PBS (−), 37° C., average of three measurements, control (none) 20
Method: A male Wister rat, 10 weeks old, was shaved on the abdomen, and the skin was removed together with subcutaneous fat tissues and was placed in a Franz diffusion cell. An upper cell on the skin surface was filled with a buffer solution containing the Example 1 test substance, and a lower cell was filled with Dulbecco's PBS (−). The diffusion cell was held at 37° C. and was allowed to stand for 8 or 16 hours. After the lapse of each of the standing times, PBS (−) was withdrawn from the lower cell. The content of free glycerol resulting from the fat breakdown was measured with use of Glycerol Test E Wako. The results are averages of three measurements.
The free glycerol contents were measured in the same manner as in Example 3, except that the two carnitine and carnitine derivative 1) and 6) used in Example 4 were tested. The results are averages of three measurements.
The free glycerol contents were measured in the same manner as in Example 3, except that the three carnitine and carnitine derivatives 1), 7) and 8) used in Example 7 were tested. The results are averages of three measurements.

[2] = system: human skin tissue three dimensional model (TESTSKIN LSD-d)
Method: The test substances were each dissolved in Dulbecco's PBS (−) to give a 1% by mass solution of the test substance. The test substance solutions were placed, each 50 μL, to a tissue surface of human skin tissue three dimensional model (TESTSKIN™ LSD-d, available from TOYOBO CO., LTD.), and were incubated at 37° C. in a 5% CO2 atmosphere for 2 hours. Thereafter the test substance solutions were aspirated out, and the skin models were further incubated at 37° C. in a 5% CO2 atmosphere for 2, 6 or 12 hours. The skin models were sampled after the lapse of each of the incubation times. The skin models sampled at the incubation times were washed with Dulbecco's PBS (−), and the tissue surfaces on which the test substances had been placed were punched out with a punch 6 mm in diameter. The skin models were then homogenated in a HEPES buffer solution (pH: 7.2), and were quantitatively analyzed using a high performance liquid chromatography to determine the carnitine content in the skin model.
From the analysis results, the carnitine contents in the skin models (unit: nmol/mg skin protein) were obtained for the test substances at each of the incubation times.

| Compound | Free glycerol content (% relative to the control) (Mouse 3T3 adipocytes) | Free glycerol, After 8 hours [1] | Free glycerol, After 16 hours [1] | carnitine content in the skin model, After 2-hour incubation [2] | carnitine content in the skin model, After 6-hour incubation [2] | carnitine content in the skin model, After 12-hour incubation [2] |
| --- | --- | --- | --- | --- | --- | --- |
| CCCCCCCCCCCCCC(=O)O[C@H](CC(=O)O)C[N+](C)(C)C.[Cl-] [Test substance 3), Tetradecanoyl-L-carnitine hydrochloride] | 168 % relative to the control | 112 µmol/mL | 146 µmol/mL | 6 nmol/mg skin protein | 12 nmol/mg skin protein | 22 nmol/mg skin protein |
| CCCCCC(=O)O[C@H](CC(=O)O)C[N+](C)(C)C.[Cl-] [Test substance 2), Hexanoyl-L-carnitine hydrochloride] | 155 % relative to the control | 116 µmol/mL | 138 µmol/mL | 7 nmol/mg skin protein | 14 nmol/mg skin protein | 21 nmol/mg skin protein |
